Data reported in patent US20240182531A1, “KV1.3 Blockers” (priority 2021, published 2024).
Where a SMILES comes first, the peptide text is derived from it. Bridges are numbered along the chain shown (N, C = ends). [ ]: non-standard residue; d: D form. Nle = CCCC[C@H](N)C(=O)O

Legend:
human Kv1.2 = biological target: T1, human Kv1.2 (Homo sapiens, UniProt P16389); experiment: cell-based; settings: ratio of patch clamp IC50 values
T1 construct: expressed in transfected cells; host or cells: CHO

Rat whole blood = Rat whole blood (Rattus norvegicus, UniProt P15384); format: cell-based; settings: IL-17A release, thapsigargin, 24 Hr, at least 2 replicates
human Kv1.6 = biological target: T2, human Kv1.6 (Homo sapiens, UniProt P17658); experiment: cell-based; settings: ratio of patch clamp IC50 values
T2 construct: expressed in transfected cells; host or cells: CHO

human Kv1.1 = biological target: T3, human Kv1.1 (Homo sapiens, UniProt Q09470); experiment: cell-based; settings: ratio of patch clamp IC50 values
T3 construct: expressed in transfected cells; host or cells: CHO
T3 sequence (Q09470 whole entry): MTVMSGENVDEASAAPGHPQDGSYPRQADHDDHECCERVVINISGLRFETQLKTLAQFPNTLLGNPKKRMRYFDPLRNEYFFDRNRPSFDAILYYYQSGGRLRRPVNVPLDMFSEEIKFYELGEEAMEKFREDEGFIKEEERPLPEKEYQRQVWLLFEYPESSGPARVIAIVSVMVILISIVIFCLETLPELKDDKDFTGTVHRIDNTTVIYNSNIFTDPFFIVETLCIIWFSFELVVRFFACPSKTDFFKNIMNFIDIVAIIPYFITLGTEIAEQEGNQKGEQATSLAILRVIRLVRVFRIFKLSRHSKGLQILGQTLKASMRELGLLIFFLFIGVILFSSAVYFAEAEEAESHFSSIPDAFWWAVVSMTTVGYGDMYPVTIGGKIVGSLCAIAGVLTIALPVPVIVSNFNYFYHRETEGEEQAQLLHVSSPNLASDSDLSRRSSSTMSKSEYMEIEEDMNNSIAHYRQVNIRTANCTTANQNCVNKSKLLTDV

Chain of Rat whole blood (P15384 whole entry): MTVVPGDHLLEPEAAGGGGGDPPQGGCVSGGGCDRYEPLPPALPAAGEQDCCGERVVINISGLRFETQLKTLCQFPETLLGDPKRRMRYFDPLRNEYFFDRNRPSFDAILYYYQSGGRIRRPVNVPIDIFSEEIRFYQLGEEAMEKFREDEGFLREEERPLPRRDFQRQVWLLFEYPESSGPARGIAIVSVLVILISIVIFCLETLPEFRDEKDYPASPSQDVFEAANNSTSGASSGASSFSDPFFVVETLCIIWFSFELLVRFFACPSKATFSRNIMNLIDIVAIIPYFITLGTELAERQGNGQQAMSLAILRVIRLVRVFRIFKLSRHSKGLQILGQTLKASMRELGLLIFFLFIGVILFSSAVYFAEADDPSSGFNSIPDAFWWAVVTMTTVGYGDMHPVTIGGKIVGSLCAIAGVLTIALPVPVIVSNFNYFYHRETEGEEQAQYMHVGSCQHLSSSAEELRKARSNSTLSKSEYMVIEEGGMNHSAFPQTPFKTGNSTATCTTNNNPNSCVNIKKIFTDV
T2 sequence (P17658 whole entry): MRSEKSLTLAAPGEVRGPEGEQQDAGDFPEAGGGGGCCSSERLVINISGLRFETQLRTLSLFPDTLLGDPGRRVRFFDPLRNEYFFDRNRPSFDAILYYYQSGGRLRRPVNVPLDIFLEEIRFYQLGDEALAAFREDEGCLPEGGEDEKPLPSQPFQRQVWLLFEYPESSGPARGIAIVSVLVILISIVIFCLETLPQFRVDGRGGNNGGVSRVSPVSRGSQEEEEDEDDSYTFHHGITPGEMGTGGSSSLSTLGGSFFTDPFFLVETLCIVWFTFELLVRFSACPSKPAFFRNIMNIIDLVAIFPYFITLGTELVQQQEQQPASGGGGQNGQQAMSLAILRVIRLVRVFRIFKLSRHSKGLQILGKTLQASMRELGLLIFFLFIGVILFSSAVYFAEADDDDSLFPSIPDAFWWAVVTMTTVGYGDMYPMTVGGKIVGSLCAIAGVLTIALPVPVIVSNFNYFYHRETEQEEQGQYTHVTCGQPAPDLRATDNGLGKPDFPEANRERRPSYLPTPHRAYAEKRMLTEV
T1 sequence (P16389 whole entry): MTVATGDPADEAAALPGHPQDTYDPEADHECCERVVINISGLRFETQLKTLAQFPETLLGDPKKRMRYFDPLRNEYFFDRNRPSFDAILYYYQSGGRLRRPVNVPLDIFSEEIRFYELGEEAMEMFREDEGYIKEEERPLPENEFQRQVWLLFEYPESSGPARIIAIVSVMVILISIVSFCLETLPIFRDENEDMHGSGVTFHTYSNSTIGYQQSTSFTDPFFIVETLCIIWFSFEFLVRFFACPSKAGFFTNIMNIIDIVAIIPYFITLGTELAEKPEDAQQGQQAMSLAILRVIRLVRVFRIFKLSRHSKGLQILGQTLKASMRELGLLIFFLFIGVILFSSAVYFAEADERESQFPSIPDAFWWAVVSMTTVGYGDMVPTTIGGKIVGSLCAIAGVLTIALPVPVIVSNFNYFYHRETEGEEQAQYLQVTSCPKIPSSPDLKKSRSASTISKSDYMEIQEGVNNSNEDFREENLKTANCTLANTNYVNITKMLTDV

Row | Compound | Selectivity ratio Kv1.2/Kv1.3 (human Kv1.2) | IC50 (Rat whole blood) [pM] | Selectivity ratio Kv1.6/Kv1.3 (human Kv1.6) | Selectivity ratio Kv1.1/Kv1.3 (human Kv1.1)
1 | CC[C@H](C)[C@@H]1NC(=O)[C@H](C)NC(=O)[C@H](CCCCN)NC(=O)[C@H](CC(C)C)NC(=O)[C@@H]2CSSC[C@@H](C(=O)N[C@@H](Cc3ccc(O)cc3)C(=O)N3CCC[C@H]3C(=O)N[C@@H](CCCNC(=N)N)C(N)=O)NC(=O)[C@H](CCCCN)NC(=O)[C@@H]3CSSC[C@H](NC(=O)[C@H](CCC(=O)O)NC(=O)[C@H](C(C)C)NC(=O)[C@H](CO)NC(=O)[C@H](C)NC(=O)[C@H](CO)NC(=O)[C@@H](NC(=O)[C@H](CCCNC(=N)N)NC(=O)[C@H](CCSC)NC(=O)[C@H](CC(=O)O)NC(=O)[C@H](CCSC)NC(=O)[C@@H](N)CC(N)=O)CSSC[C@H](NC(=O)[C@H](CCCCN)NC(=O)CNC(=O)[C@H](Cc4ccccc4)NC(=O)[C@H]([C@@H](C)CC)NC(=O)[C@H](CO)NC(=O)CNC1=O)C(=O)N[C@@H](CCSC)C(=O)N[C@@H](CC(N)=O)C(=O)N[C@@H](CCCCN)C(=O)N[C@@H](CCCCN)C(=O)N3)C(=O)N[C@@H](CC(C)C)C(=O)N[C@@H](CCC(N)=O)C(=O)N[C@@H](CCCCN)C(=O)N2 [compound 33] (H-NMDMRCSASVECLQKCLKAIGSIFGKCMNKKCKCYPR-NH2; disulfide 6-27, 12-32, 16-34) | 2163 | 760 | >7400 | >7400
2 | CC[C@H](C)[C@@H]1NC(=O)[C@H](C)NC(=O)[C@H](CCCCN)NC(=O)[C@H](CC(C)C)NC(=O)[C@@H]2CSSC[C@@H](C(=O)N[C@@H](Cc3ccc(O)cc3)C(=O)N3CCC[C@H]3C(=O)N[C@@H](CCCNC(=N)N)C(N)=O)NC(=O)[C@H](CCCCN)NC(=O)[C@@H]3CSSC[C@H](NC(=O)[C@H](CCC(=O)O)NC(=O)[C@H](C(C)C)NC(=O)[C@H](CO)NC(=O)[C@H](C)NC(=O)[C@H](CO)NC(=O)[C@@H](NC(=O)[C@H](CCCNC(=N)N)NC(=O)[C@H](CCSC)NC(=O)[C@H](CC(=O)O)NC(=O)[C@H](CCSC)NC(=O)[C@@H](N)CC(N)=O)CSSC[C@H](NC(=O)[C@H](CCCCN)NC(=O)CNC(=O)[C@H](Cc4ccccc4)NC(=O)[C@H]([C@@H](C)CC)NC(=O)[C@H](CO)NC(=O)CNC1=O)C(=O)N[C@@H](CCSC)C(=O)N[C@@H](CC(N)=O)C(=O)N[C@@H](CCCCN)C(=O)N[C@@H](CCCCN)C(=O)N3)C(=O)N[C@@H](C)C(=O)N[C@@H](CCC(N)=O)C(=O)N[C@@H](CCCCN)C(=O)N2 [compound 34] (H-NMDMRCSASVECAQKCLKAIGSIFGKCMNKKCKCYPR-NH2; disulfide 6-27, 12-32, 16-34) | 4897 | 410 | >22000 | >22000
3 | CC[C@H](C)[C@@H]1NC(=O)[C@H](C)NC(=O)[C@H](CCCCN)NC(=O)[C@H](CC(C)C)NC(=O)[C@@H]2CSSC[C@@H](C(=O)N[C@@H](Cc3ccc(O)cc3)C(=O)N3CCC[C@H]3C(=O)N[C@@H](CCCNC(=N)N)C(N)=O)NC(=O)[C@H](CCCCN)NC(=O)[C@@H]3CSSC[C@H](NC(=O)[C@H](CCC(=O)O)NC(=O)[C@H](C(C)C)NC(=O)[C@H](CO)NC(=O)[C@H](C)NC(=O)[C@H](CO)NC(=O)[C@@H](NC(=O)[C@H](CCCNC(=N)N)NC(=O)[C@H](CCSC)NC(=O)[C@H](CC(=O)O)NC(=O)[C@H](CCSC)NC(=O)[C@@H](N)CC(N)=O)CSSC[C@H](NC(=O)[C@H](CCCCN)NC(=O)CNC(=O)[C@H](Cc4ccccc4)NC(=O)[C@H]([C@@H](C)CC)NC(=O)[C@H](CO)NC(=O)CNC1=O)C(=O)N[C@@H](CCSC)C(=O)N[C@@H](CC(N)=O)C(=O)N[C@@H](CCCCN)C(=O)N[C@@H](CCCCN)C(=O)N3)C(=O)N[C@@H](CCCCN)C(=O)N[C@@H](CCC(=O)O)C(=O)N[C@@H](CCCCN)C(=O)N2 [compound 35] (H-NMDMRCSASVECKEKCLKAIGSIFGKCMNKKCKCYPR-NH2; disulfide 6-27, 12-32, 16-34) | 648 | 860 | >10800 | >10800
4 | CC[C@H](C)[C@@H]1NC(=O)[C@H](C)NC(=O)[C@H](CCCCN)NC(=O)[C@H](CC(C)C)NC(=O)[C@@H]2CSSC[C@@H](C(=O)N[C@@H](Cc3ccc(O)cc3)C(=O)N3CCC[C@H]3C(=O)N[C@@H](CCCNC(=N)N)C(N)=O)NC(=O)[C@H](CCCCN)NC(=O)[C@@H]3CSSC[C@H](NC(=O)[C@H](CCC(=O)O)NC(=O)[C@H](C(C)C)NC(=O)[C@H](CO)NC(=O)[C@H](C)NC(=O)[C@H](CO)NC(=O)[C@@H](NC(=O)[C@H](CCCNC(=N)N)NC(=O)[C@H](CCSC)NC(=O)[C@H](CC(=O)O)NC(=O)[C@H](CCSC)NC(=O)[C@@H](N)CC(N)=O)CSSC[C@H](NC(=O)[C@H](CCCCN)NC(=O)CNC(=O)[C@H](Cc4ccccc4)NC(=O)[C@H](CCCCN)NC(=O)[C@H](CO)NC(=O)CNC1=O)C(=O)N[C@@H](CCSC)C(=O)N[C@@H](CC(N)=O)C(=O)N[C@@H](CCCCN)C(=O)N[C@@H](CCCCN)C(=O)N3)C(=O)N[C@@H](CCCCN)C(=O)N[C@@H](CCC(N)=O)C(=O)N[C@@H](CCCCN)C(=O)N2 [compound 38] (H-NMDMRCSASVECKQKCLKAIGSKFGKCMNKKCKCYPR-NH2; disulfide 6-27, 12-32, 16-34) | 237 | 2100 | 490 | >7100
5 | CC[C@H](C)[C@@H]1NC(=O)[C@H](C)NC(=O)[C@H](CCCCN)NC(=O)[C@H](CC(C)C)NC(=O)[C@@H]2CSSC[C@@H](C(=O)N[C@@H](Cc3ccc(O)cc3)C(=O)N3CCC[C@H]3C(=O)N[C@@H](CCCNC(=N)N)C(N)=O)NC(=O)[C@H](CCCCN)NC(=O)[C@@H]3CSSC[C@H](NC(=O)[C@H](CCC(=O)O)NC(=O)[C@H](C(C)C)NC(=O)[C@H](CO)NC(=O)[C@H](C)NC(=O)[C@H](CO)NC(=O)[C@@H](NC(=O)[C@H](CCCNC(=N)N)NC(=O)[C@H](CCSC)NC(=O)[C@H](CC(=O)O)NC(=O)[C@H](CCSC)NC(=O)[C@@H](N)CC(N)=O)CSSC[C@H](NC(=O)[C@H](CCCCN)NC(=O)CNC(=O)[C@H](Cc4ccccc4)NC(=O)[C@H]([C@@H](C)CC)NC(=O)[C@H](CO)NC(=O)CNC1=O)C(=O)N[C@@H](CCSC)C(=O)N[C@@H](CC(N)=O)C(=O)NCC(=O)N[C@@H](CCCCN)C(=O)N3)C(=O)N[C@@H](CCCCN)C(=O)N[C@@H](CCC(N)=O)C(=O)N[C@@H](CCCCN)C(=O)N2 [compound 40] (H-NMDMRCSASVECKQKCLKAIGSIFGKCMNGKCKCYPR-NH2; disulfide 6-27, 12-32, 16-34) | 1422 | 1200 | >9700 | >9700
6 | CC[C@H](C)[C@@H]1NC(=O)[C@H](C)NC(=O)[C@H](CCCCN)NC(=O)[C@H](CC(C)C)NC(=O)[C@@H]2CSSC[C@@H](C(=O)N[C@@H](Cc3ccc(O)cc3)C(=O)N3CCC[C@H]3C(=O)N[C@@H](CCCNC(=N)N)C(N)=O)NC(=O)[C@H](Cc3c[nH]cn3)NC(=O)[C@@H]3CSSC[C@H](NC(=O)[C@H](CCC(=O)O)NC(=O)[C@H](C(C)C)NC(=O)[C@H](CO)NC(=O)[C@H](C)NC(=O)[C@H](CO)NC(=O)[C@@H](NC(=O)[C@H](CCCNC(=N)N)NC(=O)[C@H](CCSC)NC(=O)[C@H](CC(=O)O)NC(=O)[C@H](CCSC)NC(=O)[C@@H](N)CC(N)=O)CSSC[C@H](NC(=O)[C@H](CCCCN)NC(=O)CNC(=O)[C@H](Cc4ccccc4)NC(=O)[C@H]([C@@H](C)CC)NC(=O)[C@H](CO)NC(=O)CNC1=O)C(=O)N[C@@H](CCSC)C(=O)N[C@@H](CC(N)=O)C(=O)N[C@@H](CCCCN)C(=O)N[C@@H](CCCCN)C(=O)N3)C(=O)N[C@@H](CCCCN)C(=O)N[C@@H](CCC(N)=O)C(=O)N[C@@H](CCCCN)C(=O)N2 [compound 41] (H-NMDMRCSASVECKQKCLKAIGSIFGKCMNKKCHCYPR-NH2; disulfide 6-27, 12-32, 16-34) | 1816 | 770 | >16100 | >16100
7 | CCCC[C@@H]1NC(=O)[C@@H]2CSSC[C@H](NC(=O)[C@H](CCCNC(=N)N)NC(=O)[C@H](CCCC)NC(=O)[C@H](CC(=O)O)NC(=O)[C@H](CCCC)NC(=O)[C@@H](N)CC(N)=O)C(=O)N[C@@H](CCCNC(=N)N)C(=O)N[C@@H](C)C(=O)N[C@@H](CO)C(=O)N[C@@H](C(C)C)C(=O)N[C@@H](CCC(=O)O)C(=O)N[C@H]3CSSC[C@H](NC(=O)[C@H](CCCCN)NC(=O)[C@H](CCCCN)NC(=O)[C@H](CC(N)=O)NC1=O)C(=O)N[C@@H](CCCCN)C(=O)N[C@H](C(=O)N[C@@H](Cc1ccc(O)cc1)C(=O)N1CCC[C@H]1C(=O)N[C@@H](CCCNC(=N)N)C(N)=O)CSSC[C@H](NC(=O)[C@H](CCCCN)NC(=O)[C@H](CCC(N)=O)NC(=O)[C@H](CCCCN)NC3=O)C(=O)N[C@@H](CC(C)C)C(=O)N[C@@H](CCCCN)C(=O)N[C@@H](C)C(=O)N[C@@H]([C@@H](C)CC)C(=O)NCC(=O)N[C@@H](CO)C(=O)N[C@@H]([C@@H](C)CC)C(=O)N[C@@H](Cc1ccccc1)C(=O)NCC(=O)N[C@@H](CCCCN)C(=O)N2 [compound 46] (H-N[Nle]D[Nle]RCRASVECKQKCLKAIGSIFGKC[Nle]NKKCKCYPR-NH2; disulfide 6-27, 12-32, 16-34) | 674 | 910 | 1954 | >18600
